Source: PMC5681642

Columns and labels:
BTA121 = biological target: T1, BTA121 (Borrelia turicatae, UniProt A0A0R9P931); assay: radioligand binding, Q-sepharose separation, scintillation counting
T1 construct: signal peptide and further N-terminal residues removed, putative PARP domain kept; N-terminal dodeca-His tag cut with TEV protease; E. coli BL21-CodonPlus(DE3)-RIPL; predominantly monomer, some dimer
Excerpt: radioligand binding, Q-sepharose separation, scintillation counting on BTA121 | BTA121 binds palmitate with micromolar Kd

[1] = biological target: Recombinant BTA121 (Borrelia turicatae), dodeca-His tag cleaved (Borrelia turicatae); assay: SEC; Phenomenex Yarra 3 µ SEC-2000 HPLC column, 1.0 mg/mL, 50 µg loaded, room temperature, 0.5 mL/min; molecular weight estimated with Bio-rad gel filtration standard

Row | Compound | Kd (BTA121) [µM] | stoichiometry N [1]
1 | CCCCCCCCCCCCCCCC(=O)O [palmitate] | 229 | 
2 | Recombinant BTA121 (Borrelia turicatae), dodeca-His tag cleaved (from UniProt A0A0R9P931 1-445) (natural protein) |  | 2
